Earlier results, collected in PMC7190335 (Science Advances, 2020).

Molecular target: T1, COUP-TFII (Homo sapiens, UniProt P24468)
T1 sequence (P24468 1-414): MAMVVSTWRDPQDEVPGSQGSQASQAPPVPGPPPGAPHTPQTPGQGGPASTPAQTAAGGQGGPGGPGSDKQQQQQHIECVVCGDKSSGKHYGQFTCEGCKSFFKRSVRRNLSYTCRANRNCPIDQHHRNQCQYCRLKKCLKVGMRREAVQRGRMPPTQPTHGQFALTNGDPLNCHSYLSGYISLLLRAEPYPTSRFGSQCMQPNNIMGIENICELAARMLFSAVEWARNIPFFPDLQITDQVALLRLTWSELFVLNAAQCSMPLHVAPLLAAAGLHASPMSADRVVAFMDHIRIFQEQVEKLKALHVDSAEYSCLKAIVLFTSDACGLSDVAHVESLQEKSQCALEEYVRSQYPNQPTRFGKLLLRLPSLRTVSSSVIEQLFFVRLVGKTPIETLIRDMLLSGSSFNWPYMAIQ

concentration needed to reduce COUP-TFII activity: up to 100 μM
Structure (SMILES): COc1ccc(O)c2ccccc12 [4-methoxynaphthol compound, 4-methoxynaphthol]
